In US7763630B2 (priority 2007, dated 2010):

Assays:
HIV-integrase = HIV-integrase (Human immunodeficiency virus type 1 group M subtype B, UniProt P12497); test: HIV-Integrase Inhibition Activity (SPA strand transfer assay)
Experimental: HIV-Integrase Inhibition Activity. To evaluate in-vitro activity against HIV-integrase, 5 pmole of biotin labeled substrate DNA was bound to 100 μg of Streptavidin coated PVT SPA beads (Amersham Pharmacia Biotech). Recombinant integrase (0.26 ng) was incubated with the beads for 90 min at 37° C. Unbound enzyme was removed by washing the complex followed by addition of inhibitors and 0.1 fmol of P33 labeled target DNA. The reaction was stopped by adding EDTA to a final concentration of 10 mM. Samples were counted in TopCountNXT (Packard) and the CPM was used as a measure of integration. […] Activity equal to A refers to a compound having IC50=0.002 to 0.10 μM while B and C denote compounds having IC50=0.1 to 1.0 μM and IC50≧1.0 μM respectively.

[1] = tested on: recombinant NL-Rluc virus; test: Inhibition of HIV replication (NL-Rluc virus); format: cell-based; details: Human immunodeficiency virus 1, read-out: Antiviral Activity
purified integrase = purified integrase (Human immunodeficiency virus type 1 group M subtype B, UniProt P12497); test: HIV-Integrase binding assay (competition with radiolabeled compound A)
Experimental: HIV-Integrase binding assay. In this assay competitive binding experiments with test compounds and a radiolabeled integrase inhibitor (compound A) are performed against purified integrase. SPA bead/DNA/enzyme complexes were prepared as for the integrase inhibition assay except, to each well, 0.69 μl of integrase enzyme (0.42 mg/μl) was used per 2 μl of LTR DNA-attached scintillation proximity beads (stock 50 mg/ml). Binding reactions were carried out in 96-well white polystyrene assay plates (Corning, #3600). The following was added sequentially to each well: 20 μl of water or 20 μl of human serum (Cellgro Cat #35-060-CL), 5 μl of serially diluted compound (in 50% DMSO/50% integrase SPA buffer), 5 μl of [^3H]-compound I (6,000 cpm/μl in SPA buffer) and 20 μl of bead/DNA/enzyme complex. The plates were shaken for 2 hours and then allowed to sit at room temperature without shaking overnight. The [^3H]-compound I binding was measured using a Topcount scintillation counter. Cheng and Prusoff equations were used to convert the inhibition of compound 1 binding into the corresponding Ki value.

Cn1c(C2CCOC2)nc(C(=O)NCc2ccc(F)cc2)c(O)c1=O (stereo not drawn) [Example 1, N-(4-Fluorobenzyl)-5-hydroxy-1-methyl-6-oxo-2-(tetrahydrofuran-3-yl)-1,6-dihydropyrimidine-4-carboxamide]
IC50 (HIV-integrase): 2 to 100 nM
EC50 [1]: 3 to 100 nM

Cc1cc(CNC(=O)c2nc(C3CCOC3)n(C)c(=O)c2O)ccc1F (stereo not drawn) [Example 2, N-(4-Fluoro-3-methylbenzyl)-5-hydroxy-1-methyl-6-oxo-2-(tetrahydrofuran-3-yl)-1,6-dihydropyrimidine-4-carboxamide]
IC50 (HIV-integrase): 2 to 100 nM
EC50 [1]: 3 to 100 nM

Cn1c(C2CCOC2)nc(C(=O)NCc2ccc(F)cc2-n2cncn2)c(O)c1=O (stereo not drawn) [Example 3, N-(4-fluoro-2-(1H-1,2,4-triazol-1-yl)benzyl)-5-hydroxy-1-methyl-6-oxo-2-(tetrahydrofuran-3-yl)-1,6-dihydropyrimidine-4-carboxamide]
EC50 [1]: 3 to 100 nM
Ki (purified integrase): 1 to 3 nM

Cc1ncnn1-c1cc(F)ccc1CNC(=O)c1nc(C2CCOC2)n(C)c(=O)c1O (stereo not drawn) [Example 4, N-(4-fluoro-2-(5-methyl-1H-1,2,4-triazol-1-yl)benzyl)-5-hydroxy-1-methyl-6-oxo-2-(tetrahydrofuran-3-yl)-1,6-dihydropyrimidine-4-carboxamide]
EC50 [1]: 3 to 100 nM
Ki (purified integrase): 3 to 50 nM

Cc1cnnn1-c1cc(F)ccc1CNC(=O)c1nc(C2CCOC2)n(C)c(=O)c1O (stereo not drawn) [Example 5, N-(4-fluoro-2-(5-methyl-1H-1,2,3-triazol-1-yl)benzyl)-5-hydroxy-1-methyl-6-oxo-2-(tetrahydrofuran-3-yl)-1,6-dihydropyrimidine-4-carboxamide]
EC50 [1]: 3 to 100 nM
Ki (purified integrase): 3 to 50 nM

Cn1ncnc1-c1cc(F)ccc1CNC(=O)c1nc(C2CCOC2)n(C)c(=O)c1O (stereo not drawn) [Example 6, N-(4-fluoro-2-(1-methyl-1H-1,2,4-triazol-5-yl)benzyl)-5-hydroxy-1-methyl-6-oxo-2-(tetrahydrofuran-3-yl)-1,6-dihydropyrimidine-4-carboxamide]
EC50 [1]: 3 to 100 nM
Ki (purified integrase): 3 to 50 nM

Cn1c(C2CCOC2)nc(C(=O)NCc2ccc(F)cc2S(C)(=O)=O)c(O)c1=O (stereo not drawn) [Example 7, N-(4-fluoro-2-(methylsulfonyl)benzyl)-5-hydroxy-1-methyl-6-oxo-2-(tetrahydrofuran-3-yl)-1,6-dihydropyrimidine-4-carboxamide]
EC50 [1]: 3 to 100 nM
Ki (purified integrase): 3 to 50 nM

Cn1c(C2CCOC2)nc(C(=O)NCc2ccccc2N2CCCCS2(=O)=O)c(O)c1=O (stereo not drawn) [Example 8]
EC50 [1]: 3 to 100 nM
Ki (purified integrase): 3 to 50 nM

CN(C)S(=O)(=O)c1cc(F)ccc1CNC(=O)c1nc(C2CCOC2)n(C)c(=O)c1O (stereo not drawn) [Example 10, N-(2-(N,N-dimethylsulfamoyl)-4-fluorobenzyl)-5-hydroxy-1-methyl-6-oxo-2-(tetrahydrofuran-3-yl)-1,6-dihydropyrimidine-4-carboxamide]
EC50 [1]: 3 to 100 nM
Ki (purified integrase): 3 to 50 nM

Cn1cnnc1-c1cc(F)ccc1CNC(=O)c1nc(C2CCOC2)n(C)c(=O)c1O (stereo not drawn) [Example 11, N-(4-fluoro-2-(4-methyl-4H-1,2,4-triazol-3-yl)benzyl)-5-hydroxy-1-methyl-6-oxo-2-(tetrahydrofuran-3-yl)-1,6-dihydropyrimidine-4-carboxamide]
EC50 [1]: 3 to 100 nM
Ki (purified integrase): 1 to 3 nM

CN1CCN(c2cc(F)ccc2CNC(=O)c2nc(C3CCOC3)n(C)c(=O)c2O)C1=O (stereo not drawn) [Example 12, N-(4-fluoro-2-(3-methyl-2-oxoimidazolidin-1-yl)benzyl)-5-hydroxy-1-methyl-6-oxo-2-(tetrahydrofuran-3-yl)-1,6-dihydropyrimidine-4-carboxamide]
EC50 [1]: 3 to 100 nM
Ki (purified integrase): 1 to 3 nM

COCCN1CCN(c2cc(F)ccc2CNC(=O)c2nc(C3CCOC3)n(C)c(=O)c2O)C1=O (stereo not drawn) [Example 13, N-(4-fluoro-2-(3-(2-methoxyethyl)-2-oxoimidazolidin-1-yl)benzyl)-5-hydroxy-1-methyl-6-oxo-2-(tetrahydrofuran-3-yl)-1,6-dihydropyrimidine-4-carboxamide]
EC50 [1]: 3 to 100 nM
Ki (purified integrase): 1 to 3 nM

Cn1c(C2CCOC2)nc(C(=O)NCc2ccc(F)cc2N2CCN(CCO)C2=O)c(O)c1=O (stereo not drawn) [Example 14, N-(4-fluoro-2-(3-(2-hydroxyethyl)-2-oxoimidazolidin-1-yl)benzyl)-5-hydroxy-1-methyl-6-oxo-2-(tetrahydrofuran-3-yl)-1,6-dihydropyrimidine-4-carboxamide]
EC50 [1]: 3 to 100 nM
Ki (purified integrase): 1 to 3 nM

Cn1c(C2COCC2O)nc(C(=O)NCc2ccc(F)cc2)c(O)c1=O (stereo not drawn) [Example 15, N-(4-Fluorobenzyl)-5-hydroxy-2-(4-hydroxytetrahydrofuran-3-yl)-1-methyl-6-oxo-1,6-dihydropyrimidine-4-carboxamide]
IC50 (HIV-integrase): 2 to 100 nM
EC50 [1]: 3 to 100 nM

CSC1COCC1c1nc(C(=O)NCc2ccc(F)cc2)c(O)c(=O)n1C (stereo not drawn) [Example 16, N-(4-Fluorobenzyl)-5-hydroxy-1-methyl-2-(4-(methylthio)tetrahydrofuran-3-yl)-6-oxo-1,6-dihydropyrimidine-4-carboxamide]
IC50 (HIV-integrase): 2 to 100 nM
EC50 [1]: 3 to 100 nM

Cn1c(C2CCOCC2)nc(C(=O)NCc2ccc(F)cc2)c(O)c1=O [Example 17, N-(4-Fluorobenzyl)-5-hydroxy-1-methyl-6-oxo-2-(tetrahydro-2H-pyran-4-yl)-1,6-dihydropyrimidine-4-carboxamide]
IC50 (HIV-integrase): 2 to 100 nM
EC50 [1]: 3 to 100 nM

Cn1c(C2CCOCC2)nc(C(=O)NCc2ccc(F)cc2-n2cncn2)c(O)c1=O [Example 18, N-(4-fluoro-2-(1H-1,2,4-triazol-1-yl)benzyl)-5-hydroxy-1-methyl-6-oxo-2-(tetrahydro-2H-pyran-4-yl)-1,6-dihydropyrimidine-4-carboxamide]
EC50 [1]: 3 to 100 nM
Ki (purified integrase): 3 to 50 nM

Cc1ncnn1-c1cc(F)ccc1CNC(=O)c1nc(C2CCOCC2)n(C)c(=O)c1O [Example 19, N-(4-fluoro-2-(5-methyl-1H-1,2,4-triazol-1-yl)benzyl)-5-hydroxy-1-methyl-6-oxo-2-(tetrahydro-2H-pyran-4-yl)-1,6-dihydropyrimidine-4-carboxamide]
EC50 [1]: 3 to 100 nM
Ki (purified integrase): 3 to 50 nM

Cc1cnnn1-c1cc(F)ccc1CNC(=O)c1nc(C2CCOCC2)n(C)c(=O)c1O [Example 20, N-(4-fluoro-2-(5-methyl-1H-1,2,3-triazol-1-yl)benzyl)-5-hydroxy-1-methyl-6-oxo-2-(tetrahydro-2H-pyran-4-yl)-1,6-dihydropyrimidine-4-carboxamide]
EC50 [1]: 3 to 100 nM
Ki (purified integrase): 3 to 50 nM

Cn1ncnc1-c1cc(F)ccc1CNC(=O)c1nc(C2CCOCC2)n(C)c(=O)c1O [Example 21, N-(4-fluoro-2-(1-methyl-1H-1,2,4-triazol-5-yl)benzyl)-5-hydroxy-1-methyl-6-oxo-2-(tetrahydro-2H-pyran-4-yl)-1,6-dihydropyrimidine-4-carboxamide]
EC50 [1]: 3 to 100 nM
Ki (purified integrase): 1 to 3 nM

Cn1c(C2CCOCC2)nc(C(=O)NCc2ccc(F)cc2S(C)(=O)=O)c(O)c1=O [Example 22, N-(4-fluoro-2-(methylsulfonyl)benzyl)-5-hydroxy-1-methyl-6-oxo-2-(tetrahydro-2H-pyran-4-yl)-1,6-dihydropyrimidine-4-carboxamide]
EC50 [1]: 3 to 100 nM
Ki (purified integrase): 3 to 50 nM

CN(C)S(=O)(=O)c1cc(F)ccc1CNC(=O)c1nc(C2CCOCC2)n(C)c(=O)c1O [Example 23, N-(2-(N,N-dimethylsulfamoyl)-4-fluorobenzyl)-5-hydroxy-1-methyl-6-oxo-2-(tetrahydro-2H-pyran-4-yl)-1,6-dihydropyrimidine-4-carboxamide]
EC50 [1]: 3 to 100 nM
Ki (purified integrase): 3 to 50 nM

Cn1c(C2CCOCC2)nc(C(=O)NCc2ccccc2N2CCCCS2(=O)=O)c(O)c1=O [Example 25]
EC50 [1]: 3 to 100 nM
Ki (purified integrase): 3 to 50 nM

Cn1cnnc1-c1cc(F)ccc1CNC(=O)c1nc(C2CCOCC2)n(C)c(=O)c1O [Example 26, N-(4-fluoro-2-(4-methyl-4H-1,2,4-triazol-3-yl)benzyl)-5-hydroxy-1-methyl-6-oxo-2-(tetrahydro-2H-pyran-4-yl)-1,6-dihydropyrimidine-4-carboxamide]
EC50 [1]: 3 to 100 nM
Ki (purified integrase): 1 to 3 nM
